Measured values reported in patent US8440794B2, “Peptide sequences, their branched form and use thereof for antimicrobial applications” (Universita' Degli Studi di Siena, priority 2008, dated 2013).
Where a SMILES comes first, the peptide text is derived from it. Bridges are numbered along the chain shown (N, C = ends). Roman numbers before positions name the chains, in order. [ ]: non-standard residue; d: D form. βAla = NCCC(=O)O

Key:
E. coli TG1 = test: Antibacterial activity against E. coli TG1 cells (CFU count after 75 min incubation, FIG. 1A); type: cell-based; details: 75 minutes at 37° C., CFU counted
Description: FIG. 1. A, Antibacterial activity against E. coli TG1 cells. Comparison of the following tetra-branched peptides: M6 batch 1 synthesis (triangles), M6 batch 2 synthesis (squares), M6 batch 3 synthesis (white circles), which contain a mixture of Gln and pyroGlu (in unknown percentages) as first amino-acid, […] (asterisks), where the first amino-acid is 100% pyroGlu, and M33 (black circles), in which the first Gln was deleted. […] SD derived by means of three different experiments. Many different syntheses of M33 (and also of M34, M35 and M36, here not shown) gave perfectly overlapping results without any wavering outcome. B, Mass spectrometry analysis of tetra-branched peptide M6 crude mixture. Calculated molecular mass of M6 was 5195 Da. Two main peaks are present, one at 5197 Da corresponding to unmodified M6 and one at 5179 Da that corresponds to the secondary product with one pyroGlu in first position in the place of one of the four Gln. C, Mass spectrometry analysis of tetrabranched peptide M33 after 24 hours of incubation in serum. The peptide appears as a single peak at the expected molecular mass (4683 Da).
A single colony of E. coli TG1 strain was cultured in 2×TY medium to 0.2 OD^600. […] The following day colonies (CFU/ml) grown on plates were counted.

[1] = type: in vivo; details: animals treated ip with 100 mg/Kg (not shown)
[2] = tested on: P. aeruginosa and K. pneumoniae; type: cell-based; details: 24 h
Method: M33, […], M35 and M36 MICs were determined against strains of several bacterial species, including Gram-negative pathogens and also Staphylococcus aureus (Table 1). MICs in the micromolar range were observed against several Gram-negatives including Pseudomonas aeruginosa, Acinetobacter baumannii and most Enterobacteriaceae, with the exception of Proteus mirabilis, Serratia marcescens and Burkholderia cepacia. Activity of peptides was retained against MDR strains with various resistance mechanisms (such as extended-spectrum beta-lactamases and carbapenemases), including MDR P. aeruginosa strains from CF patients. Antimicrobial profile of M33, […] and potency were overall similar to those of polymyxin B, although M33, M34, M35 and M36 also appeared to have some activity against S. aureus (Table 1).
Then it was examined for inhibiting LPS-induced TNF-α, secretion by Raw 264.7 macrophages.

CC[C@H](C)[C@H](NC(=O)[C@H](CCCCN)NC(=O)[C@@H](N)CCCCN)C(=O)N[C@@H](CCCNC(=N)N)C(=O)N[C@H](C(=O)N[C@@H](CCCNC(=N)N)C(=O)N[C@@H](CC(C)C)C(=O)N[C@@H](CO)C(=O)N[C@@H](C)C(=O)NCCCC[C@H](NC(=O)[C@H](C)NC(=O)[C@H](CO)NC(=O)[C@H](CC(C)C)NC(=O)[C@H](CCCNC(=N)N)NC(=O)[C@@H](NC(=O)[C@H](CCCNC(=N)N)NC(=O)[C@@H](NC(=O)[C@H](CCCCN)NC(=O)[C@@H](N)CCCCN)[C@@H](C)CC)C(C)C)C(=O)NCCCC[C@H](NC(=O)[C@H](CCCCNC(=O)[C@H](C)NC(=O)[C@H](CO)NC(=O)[C@H](CC(C)C)NC(=O)[C@H](CCCNC(=N)N)NC(=O)[C@@H](NC(=O)[C@H](CCCNC(=N)N)NC(=O)[C@@H](NC(=O)[C@H](CCCCN)NC(=O)[C@@H](N)CCCCN)[C@@H](C)CC)C(C)C)NC(=O)[C@H](C)NC(=O)[C@H](CO)NC(=O)[C@H](CC(C)C)NC(=O)[C@H](CCCNC(=N)N)NC(=O)[C@@H](NC(=O)[C@H](CCCNC(=N)N)NC(=O)[C@@H](NC(=O)[C@H](CCCCN)NC(=O)[C@@H](N)CCCCN)[C@@H](C)CC)C(C)C)C(=O)NCCC(=O)O)C(C)C [M33, KKIRVRLSA] (I: H-KKIRVRLSAKK[βAla]-OH / II: H-KKIRVRLSAK / III: H-KKIRVRLSA / IV: H-KKIRVRLSA; amide I:10-IV:C, I:11-II:C, II:10-III:C; N-terminus assumed)
Antibacterial activity against E. coli TG1 cells (comparison of tetra-branched peptides, FIG. 1A) (E. coli TG1): improved peptide activity | Apparent toxicity signs [1]: did not produce apparent toxicity signs | MIC [2]: 1.5 to 3 µM
